We go through one compound from US20120308623A1, “COMPOSITION COMPRISING NANOPARTICLES OF TI02” (priority 2009, published 2012).

The nature of data set [1]: pH of the suspension containing MB. Type of data set: physicochemical. As to conditions: Example 1: H2O2 at 15 vol. %, without or with TiO2. The method, then: The aim was to measure if methylene blue could be degradated by H2O2 (PERDROGEN® 30% H2O2 (w/w), Sigma Aldrich AS, Oslo, Norway) at 15% only, without TiO2 or UV irradiation. Then, an increasing concentration of TiO2 (Aeroxide P25, Evonik AG, Essen, Germany) was added to the solution until a maximum concentration of 8 g/L. The measurements were taken every 3 minutes for one hour. The pH of the suspension containing MB was also registered. The suspension was stirred prior to each measurement to prevent the deposition of the TiO2 particles.
The aim was to measure if methylene blue could be degradated by TiO2 nanoparticles only (Aeroxide P25, Evonik AG, Essen, Germany), without H2O2 or UV irradiation. Then, an increasing concentration of H2O2 (PERDROGEN® 30% H2O2 (w/w), Sigma Aldrich AS, Oslo, Norway) was added to the suspension until a maximum concentration of 15 vol. %. The procedure of the experiment was the same as explained in example 1.

Data set [2] is described as follows: Methylene blue degradation measured by UV-vis spectrophotometry. As to conditions: Example 1: H2O2 at 15 vol. %, TiO2 at various concentrations, no UV irradiation, measured every 3 minutes for one hour. The source says:
Methylene blue (MB) is a heterocyclic aromatic chemical compound with molecular formula: C16H18N3SCl (AldrichSigmaAldrich, Oslo, Norway). It has many uses in a range of different fields, such as biology and chemistry. […] A degradadation of MB therefore can be used as a model for the in vivo degradation of organic material, such as bacteria, or dead, damaged, and/or infected tissue. At room temperature it appears as a solid, odourless, dark green powder that yields a blue solution when dissolved in water. When degradated in solution, methylene blue becomes colourless. When methylene blue is analysed by UV-vis spectrophotometry (Lambda 25, Perkin Elmer, USA), it absorbs light at […]. This machine was used to quantify the degradation of MB.
The aim was to measure if methylene blue could be degradated by H2O2 (PERDROGEN® 30% H2O2 (w/w), Sigma Aldrich AS, Oslo, Norway) at 15% only, without TiO2 or UV irradiation. Then, an increasing concentration of TiO2 (Aeroxide P25, Evonik AG, Essen, Germany) was added to the solution until a maximum concentration of 8 g/L. The measurements were taken every 3 minutes for one hour. The pH of the suspension containing MB was also registered. The suspension was stirred prior to each measurement to prevent the deposition of the TiO2 particles. […]

Turning to `OO` [H2O2 at 15 vol. %, H2O2], the “pH of the suspension containing MB” value in data set [1] amounted to 3.7. Besides, in data set [2], the Methylene blue degradation result was “Almost no degradation”.
